# In patent US9781930B2, “3′-substituted-abscisic acid derivatives” (Valent BioSciences Corporation, priority 2014, dated 2017):
# System: Arabidopsis thaliana seed
# Assay: Seed germination inhibition assay for testing Examples 1-28 and 47-50
# Assay type: in vivo
# Parameters: key to Arabidopsis seed germination inhibition potency: + + + +: The other derivatives were scored by potency relative to S-ABA.; (S)-ABA potency = + + +.; + +: The other derivatives were scored by potency relative to S-ABA.; ++: The other derivatives were scored by potency relative to S-ABA.; +: The other derivatives were scored by potency relative to S-ABA.; −− = no effect
# Conditions: 0.01-10.0 ppm in 96-well plates, scored on day 7, relative to (S)-ABA
# Procedure: Seed Germination Inhibition Assay for Testing Examples 1-28 and 47-50 To determine the germination inhibition potency of the (S)-ABA derivatives, germination assays were performed with the model plant Arabidopsis thaliana. Arabidopsis seed was sterilized by shaking for five minutes in 200-proof ethanol, and followed by shaking for five minutes in a 10% bleach solution. The seeds were then washed five times in sterile, distilled, de-ionized water and suspended in 0.1% phytoagar. The tubes containing the seeds were wrapped in aluminum foil and stratified at 4° C. for two days. All compounds were tested at eight concentrations of 0 (DMSO control), 0.01, 0.03, 0.1, 0.3, 1.0, 3.0, and 10.0 ppm in 96-well plates. Each plate contained eight replicates of each concentration of the test compound and eight replicates of (S)-ABA at 0.1 ppm as the positive control. As an additional set of controls, each run of the assay also contained one plate dosed with (S)-ABA covering a range of concentrations up to 10 ppm. For each compound, 10× stock solutions corresponding to each of the tested concentrations were prepared in distilled and de-ionized water containing 5% DMSO. The stock test solution (10 μL) was added to each well according to the scheme described above, and 90 μL of ½× Murashige and Skoog media containing 1.2% Bactoagar was then added to each well (final DMSO concentration was 0.5%). When the media solidified, ten to fifteen sterile stratified Arabidopsis seeds were distributed into each well using a repeat pipettor. The plates were sealed with surgical tape and placed in a growth chamber running diurnal cycles of 12 hours of light at 24° C. and 12 hours of darkness at 19° C. The plates were scanned on days 3 through 7, and scored on day 7. The 3′-substituted-(S)-ABA derivatives were scored on ability to inhibit germination relative to the potency of (S)-ABA. The results are summarized below in “Table 1: Arabidopsis seed germination inhibition activity of (S)-ABA derivatives.”
row,Compound,Arabidopsis seed germination inhibition potency
1,"CCCCC1=C(C)[C@](O)(/C=C/C(C)=C\C(=O)O)C(C)(C)CC1=O [Example 6, (2Z,4E)-5-((S)-3-butyl-1-hydroxy-2,6,6-trimethyl-4-oxocyclohex-2-en-1-yl)-3-methylpenta-2,4-dienoic acid]",+
2,"CCC1=C(C)[C@](O)(/C=C/C(C)=C\C(=O)OC)C(C)(C)CC1=O [Example 1, (2Z,4E)-methyl 5-((S)-3-ethyl-1-hydroxy-2,6,6-trimethyl-4-oxocyclohex-2-en-1-yl)-3-methylpenta-2,4-dienoate]",+ + +
3,"CC1=C(CC(=O)OC(C)(C)C)C(=O)CC(C)(C)[C@@]1(O)/C=C/C(C)=C\C(=O)O [Example 9, (2Z,4E)-5-((S)-3-(2-(tert-butoxy)-2-oxoethyl)-1-hydroxy-2,6,6-trimethyl-4-oxocyclohex-2-en-1-yl)-3-methylpenta-2,4-dienoic acid]",−−
4,"CC1=C(Cc2ccccc2)C(=O)CC(C)(C)[C@@]1(O)/C=C/C(C)=C\C(=O)O [Example 13, (2Z,4E)-5-((S)-3-benzyl-1-hydroxy-2,6,6-trimethyl-4-oxocyclohex-2-en-1-yl)-3-methylpenta-2,4-dienoic acid]",−−
5,"CC1=C(Cc2ccccc2C)C(=O)CC(C)(C)[C@@]1(O)/C=C/C(C)=C\C(=O)O [Example 16, (2Z,4E)-5-((S)-1-hydroxy-2,6,6-trimethyl-3-(2-methylbenzyl)-4-oxocyclohex-2-en-1-yl)-3-methylpenta-2,4-dienoic acid]",−−
6,"C=CCC1=C(C)[C@](O)(/C=C/C(C)=C\C(=O)O)C(C)(C)CC1=O [Example 4, (2Z,4E)-5-((S)-3-allyl-1-hydroxy-2,6,6-trimethyl-4-oxocyclohex-2-en-1-yl)-3-methylpenta-2,4-dienoic acid]",+ + +
7,"CC1=C(Cc2ccc(F)cc2)C(=O)CC(C)(C)[C@@]1(O)/C=C/C(C)=C\C(=O)O [Example 21, (2Z,4E)-5-((S)-3-(4-fluorobenzyl)-1-hydroxy-2,6,6-trimethyl-4-oxocyclohex-2-en-1-yl)-3-methylpenta-2,4-dienoic acid]",−−
8,"CCC1=C(C)[C@](O)(/C=C/C(C)=C\C(=O)O)C(C)(C)CC1=O [Example 2, (2Z,4E)-5-((S)-3-ethyl-1-hydroxy-2,6,6-trimethyl-4-oxocyclohex-2-en-1-yl)-3-methylpenta-2,4-dienoic acid]",+ + +
9,"CC1=C(Cc2ccc(C)cc2)C(=O)CC(C)(C)[C@@]1(O)/C=C/C(C)=C\C(=O)O [Example 18, (2Z,4E)-5-((S)-1-hydroxy-2,6,6-trimethyl-3-(4-methylbenzyl)-4-oxocyclohex-2-en-1-yl)-3-methylpenta-2,4-dienoic acid]",−−
10,"CCCCCC1=C(C)[C@](O)(/C=C/C(C)=C\C(=O)O)C(C)(C)CC1=O [Example 8, (2Z,4E)-5-((S)-1-hydroxy-2,6,6-trimethyl-4-oxo-3-pentylcyclohex-2-en-1-yl)-3-methylpenta-2,4-dienoic acid]",−−
11,"COc1cc([N+](=O)[O-])ccc1CC1=C(C)[C@](O)(/C=C/C(C)=C\C(=O)O)C(C)(C)CC1=O [Example 27, (2Z,4E)-5-((S)-1-hydroxy-3-(2-methoxy-4-nitrobenzyl)-2,6,6-trimethyl-4-oxocyclohex-2-en-1-yl)-3-methylpenta-2,4-dienoic acid]",−−
12,"C#CCC1=C(C)[C@](O)(/C=C/C(C)=C\C(=O)O)C(C)(C)CC1=O [Example 5, (2Z,4E)-5-((S)-1-hydroxy-2,6,6-trimethyl-4-oxo-3-(prop-2-yn-1-yl)cyclohex-2-en-1-yl)-3-methylpenta-2,4-dienoic acid]",+ + + +
13,"CC1=C(Cc2ccc(Cl)cc2)C(=O)CC(C)(C)[C@@]1(O)/C=C/C(C)=C\C(=O)O [Example 25, (2Z,4E)-5-((S)-3-(4-chlorobenzyl)-1-hydroxy-2,6,6-trimethyl-4-oxocyclohex-2-en-1-yl)-3-methylpenta-2,4-dienoic acid]",−−
14,"COc1cccc(CC2=C(C)[C@](O)(/C=C/C(C)=C\C(=O)O)C(C)(C)CC2=O)c1 [Example 26, (2Z,4E)-5-((S)-3-(3-methoxybenzyl)-1-hydroxy-2,6,6-trimethyl-4-oxocyclohex-2-en-1-yl)-3-methylpenta-2,4-dienoic acid]",−−
15,"CC1=C(CC(=O)N(C)C)C(=O)CC(C)(C)[C@@]1(O)/C=C/C(C)=C\C(=O)O [Example 12, (2Z,4E)-5-((S)-3-(2-(dimethylamino)-2-oxoethyl)-1-hydroxy-2,6,6-trimethyl-4-oxocyclohex-2-en-1-yl)-3-methylpenta-2,4-dienoic acid]",−−
16,"CC1=C(Cc2ccc(F)c(F)c2)C(=O)CC(C)(C)[C@@]1(O)/C=C/C(C)=C\C(=O)O [Example 22, (2Z,4E)-5-((S)-3-(3,4-difluorobenzyl)-1-hydroxy-2,6,6-trimethyl-4-oxocyclohex-2-en-1-yl)-3-methylpenta-2,4-dienoic acid]",−−
17,"CCCC1=C(C)[C@](O)(/C=C/C(C)=C\C(=O)O)C(C)(C)CC1=O [Example 3, (2Z,4E)-5-((S)-1-hydroxy-2,6,6-trimethyl-4-oxo-3-propylcyclohex-2-en-1-yl)-3-methylpenta-2,4-dienoic acid]",+ +
18,"CC1=C(C/C=C/C(=O)O)C(=O)CC(C)(C)[C@@]1(O)/C=C/C(C)=C\C(=O)O [Example 49, (2Z,4E)-5-((S)-3-((E)-3-carboxyallyl)-1-hydroxy-2,6,6-trimethyl-4-oxocyclohex-2-en-1-yl)-3-methylpenta-2,4-dienoic acid]",−−
19,"CCC#CCC1=C(C)[C@](O)(/C=C/C(C)=C\C(=O)O)C(C)(C)CC1=O [Example 48, (2Z,4E)-5-((S)-1-hydroxy-2,6,6-trimethyl-4-oxo-3-(pent-2-yn-1-yl)cyclohex-2-en-1-yl)-3-methylpenta-2,4-dienoic acid]",+
20,"CC1=C(Cc2cccc(C)c2)C(=O)CC(C)(C)[C@@]1(O)/C=C/C(C)=C\C(=O)O [Example 17, (2Z,4E)-5-((S)-1-hydroxy-2,6,6-trimethyl-3-(3-methylbenzyl)-4-oxocyclohex-2-en-1-yl)-3-methylpenta-2,4-dienoic acid]",−−
21,"CC1=C(CCCCO)C(=O)CC(C)(C)[C@@]1(O)/C=C/C(C)=C\C(=O)O [Example 7, (2Z,4E)-5-((S)-1-hydroxy-3-(4-hydroxybutyl)-2,6,6-trimethyl-4-oxocyclohex-2-en-1-yl)-3-methylpenta-2,4-dienoic acid]",−−
22,"CC1=C(Cc2ccccc2Cl)C(=O)CC(C)(C)[C@@]1(O)/C=C/C(C)=C\C(=O)O [Example 24, (2Z,4E)-5-((S)-3-(2-chlorobenzyl)-1-hydroxy-2,6,6-trimethyl-4-oxocyclohex-2-en-1-yl)-3-methylpenta-2,4-dienoic acid]",−−
23,"CC1=C(Cc2cccc3ccccc23)C(=O)CC(C)(C)[C@@]1(O)/C=C/C(C)=C\C(=O)O [Example 15, (2Z,4E)-5-((S)-1-hydroxy-2,6,6-trimethyl-3-(naphthalen-1-ylmethyl)-4-oxocyclohex-2-en-1-yl)-3-methylpenta-2,4-dienoic acid]",−−
24,"CC1=C(C/C=C/c2ccccc2)C(=O)CC(C)(C)[C@@]1(O)/C=C/C(C)=C\C(=O)O [Example 50, (2Z,4E)-5-((S)-3-cinnamyl-1-hydroxy-2,6,6-trimethyl-4-oxocyclohex-2-en-1-yl)-3-methylpenta-2,4-dienoic acid]",+
25,"CC#CCC1=C(C)[C@](O)(/C=C/C(C)=C\C(=O)O)C(C)(C)CC1=O [Example 47, (2Z,4E)-5-((S)-3-(but-2-yn-1-yl)-1-hydroxy-2,6,6-trimethyl-4-oxocyclohex-2-en-1-yl)-3-methylpenta-2,4-dienoic acid]",++

# Same assay, conditions: Arabidopsis seed germination
row,Compound,germination inhibition potency compared to (S)-ABA (in words)
1,"CCC1=C(C)[C@](O)(/C=C/C(C)=C\C(=O)OC)C(C)(C)CC1=O [Example 1, (2Z,4E)-methyl 5-((S)-3-ethyl-1-hydroxy-2,6,6-trimethyl-4-oxocyclohex-2-en-1-yl)-3-methylpenta-2,4-dienoate]",just as effective as (S)-ABA
2,"C=CCC1=C(C)[C@](O)(/C=C/C(C)=C\C(=O)O)C(C)(C)CC1=O [Example 4, (2Z,4E)-5-((S)-3-allyl-1-hydroxy-2,6,6-trimethyl-4-oxocyclohex-2-en-1-yl)-3-methylpenta-2,4-dienoic acid]",just as effective as (S)-ABA
3,"CCC1=C(C)[C@](O)(/C=C/C(C)=C\C(=O)O)C(C)(C)CC1=O [Example 2, (2Z,4E)-5-((S)-3-ethyl-1-hydroxy-2,6,6-trimethyl-4-oxocyclohex-2-en-1-yl)-3-methylpenta-2,4-dienoic acid]",just as effective as (S)-ABA
4,"C#CCC1=C(C)[C@](O)(/C=C/C(C)=C\C(=O)O)C(C)(C)CC1=O [Example 5, (2Z,4E)-5-((S)-1-hydroxy-2,6,6-trimethyl-4-oxo-3-(prop-2-yn-1-yl)cyclohex-2-en-1-yl)-3-methylpenta-2,4-dienoic acid]",more potent than (S)-ABA
